Experimental data as given in article PMC5733478, “A Non-imaging High Throughput Approach to Chemical Library Screening at the Unmodified Adenosine-A3 Receptor in Living Cells” (Frontiers in Pharmacology, 2017).
Read-outs that look alike come from different tables or passages of the source.

Key:
[1] = molecular target: A1AR; details: cited from earlier work
[2] = molecular target: T1, human A3AR (Homo sapiens, UniProt P0DMS8); assay: HTS (PHERAstar FS) fluorescent ligand competition binding in live CHO cells, 5 nM AV039 tracer
T1 construct: expressed in transfected cells
T1 sequence (P0DMS8 1-318): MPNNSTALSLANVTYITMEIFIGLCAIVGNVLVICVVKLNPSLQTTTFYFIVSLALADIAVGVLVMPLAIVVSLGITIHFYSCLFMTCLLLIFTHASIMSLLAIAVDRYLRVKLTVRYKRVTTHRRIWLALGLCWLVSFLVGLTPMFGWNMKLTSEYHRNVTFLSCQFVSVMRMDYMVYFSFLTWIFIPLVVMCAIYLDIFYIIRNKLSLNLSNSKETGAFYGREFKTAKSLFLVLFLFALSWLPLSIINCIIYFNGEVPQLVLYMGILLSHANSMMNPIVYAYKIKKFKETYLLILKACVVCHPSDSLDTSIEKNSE
Procedure: (§1) CHO cells stably expressing the A3AR, A1AR, β1AR or β2AR were seeded into the central 60 wells (for high content confocal analysis) or every well (high throughput analysis) of a 96-well clear-bottomed, black-walled plate (Greiner BioOne) and grown to confluency. […] Cells were incubated for 1h at 37°C/5% CO2. Buffer was then removed from each well, cells washed once in HBSS and fresh HBSS added at room temperature. Plates were then immediately subjected to high content or HTS analysis as detailed below.
(§2) High throughput analysis was performed using a PHERAstar FS plate reader (BMG Technologies). […] Optimal focal height was determined automatically and total fluorescence intensity was assessed by taking 81 reads per well.
(§3) Competition binding curves were fitted to the following equation using GraphPad Prism 5 (GraphPad Software): […]
(§4) where [L] is the concentration and KD is the equilibrium dissociation constant of the fluorescent ligand.

[3] = molecular target: T1, human A3AR; assay: HTS (PHERAstar FS) fluorescent ligand competition binding in live CHO cells, 25 nM CA200645 tracer
Procedure: as §1, §2, §3, §4

[4] = molecular target: T1, human A3AR; assay: LOPAC library primary screen: single concentration (10 μM) inhibition of 25 nM CA200645 binding, PHERAstar FS
[5] = molecular target: T2, β2AR (Homo sapiens, UniProt P07550); assay: HTS (PHERAstar FS) fluorescent ligand competition binding in live CHO cells, 10 nM BODIPY-TMR-CGP tracer; details: for β2AR % Total binding at 10 μM: 10 μM compound, 10 nM BODIPY-TMR-CGP, mean ± SEM, n=3
T2 construct: expressed in transfected cells
T2 sequence (P07550 whole entry): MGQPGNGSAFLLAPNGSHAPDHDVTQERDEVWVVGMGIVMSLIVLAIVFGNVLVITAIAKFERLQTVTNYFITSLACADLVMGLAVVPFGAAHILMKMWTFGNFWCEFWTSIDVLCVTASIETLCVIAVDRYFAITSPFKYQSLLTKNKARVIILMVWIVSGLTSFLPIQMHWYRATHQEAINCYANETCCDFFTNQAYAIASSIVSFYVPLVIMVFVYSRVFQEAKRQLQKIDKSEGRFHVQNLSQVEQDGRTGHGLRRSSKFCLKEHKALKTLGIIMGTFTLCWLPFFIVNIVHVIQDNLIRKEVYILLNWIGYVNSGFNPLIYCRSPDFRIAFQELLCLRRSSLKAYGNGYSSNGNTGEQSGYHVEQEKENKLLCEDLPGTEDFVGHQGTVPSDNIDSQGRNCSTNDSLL
Procedure: as §1, §2, §3, §4

[6] = molecular target: A3AR; details: ref Stoddart et al. ([2012]); cited from earlier work
[7] = molecular target: T3, human A1AR (Homo sapiens, UniProt P30542); assay: HTS (PHERAstar FS) fluorescent ligand competition binding in live CHO cells, 25 nM CA200645 tracer; details: secondary screen of LOPAC hits
T3 construct: expressed in transfected cells
T3 sequence (P30542 1-326): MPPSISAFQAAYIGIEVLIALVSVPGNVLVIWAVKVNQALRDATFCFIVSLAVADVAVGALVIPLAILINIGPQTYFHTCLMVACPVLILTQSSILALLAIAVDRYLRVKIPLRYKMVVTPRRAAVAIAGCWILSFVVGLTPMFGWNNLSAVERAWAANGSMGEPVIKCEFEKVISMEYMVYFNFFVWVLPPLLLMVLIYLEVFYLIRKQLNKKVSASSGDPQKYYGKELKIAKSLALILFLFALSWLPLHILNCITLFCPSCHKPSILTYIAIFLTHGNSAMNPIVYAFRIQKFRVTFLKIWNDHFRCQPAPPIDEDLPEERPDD
Procedure: as §1, §2, §3, §4

[8] = secondary screen of LOPAC hits, full inhibition curves, 25 nM CA200645, mean ± SEM, n=3, read-out: A3AR pKi (selected LOPAC hits) (converted)

## O=C(Cc1ccccc1)Nc1nc2ccc(Cl)cc2c2nc(-c3ccco3)nn12 [MRS1220]
[1]; A1AR, ref Stoddart et al. ([2012])
  Literature values (A1AR): 7.14

## Nc1nc2ccc(Cl)cc2c2nc(-c3ccco3)nn12 [CGS15943]
[2]
  Ki: 12.3 nM
[3]
  Ki: 12.3 nM
[4]
  % Total CA200645 binding: 30.0 ± 3.0%
[5]
  β2AR % Total binding at 10 μM: 115.4 ± 5.0%
[5]; secondary screen of LOPAC hits
  effect on binding of BODIPY-TMR-CGP at the β2AR: no effect
[6]
  Literature values (A3AR): 8.18

## CA200645
[1]; ref Stoddart et al., [2012], read-out: KD of fluorescent ligand at the A1AR
  Kd: 11 nM

## Nc1nc(NCCc2ccc(O)cc2)nc2nc(-c3ccco3)nn12 [ZM241385]
[2]; CHO cells expressing A3AR, 5 nM AV039, PHERAstar HTS assay, mean ± SEM, read-out: pKi A3AR AV039 (converted)
  Ki: 479 nM
[3]; CHO cells expressing A3AR, 25 nM CA200645, PHERAstar HTS assay, mean ± SEM, read-out: pKi A3AR CA200645 (converted)
  Ki: 234 nM
[6]
  Literature values (A3AR): 6.74

## CN(C)S(=O)(=O)c1ccc2c(c1)/C(=C/c1cc3c([nH]1)CCCC3)C(=O)N2 [SU 6656]
[7]
  inhibition of CA200645 binding at the A1AR: only inhibited binding at the highest concentration tested
[3]; [8]
  Ki: 676 nM
[4]
  % 25 nM CA200645 binding: 17.3 ± 1.8%
[5]
  β2AR % Total binding at 10 μM: 128.4 ± 18.4%

## CC1=C(/C=C/C(C)=C/C=C/C(C)=C/C(=O)Nc2ccc(O)cc2)C(C)(C)CCC1 [Retinoic acid p-hydroxyanilide]
[7]; 25 nM CA200645, mean ± SEM, n=3, read-out: A1AR pKi (selected LOPAC hits) (converted)
  Ki: 912 nM
[3]; [8]
  Ki: 741 nM
[4]; % of control wells (1% DMSO and 25 nM CA200645), compounds at 10 µM, whole live cells expressing the A3AR, mean ± SD, three experiments in duplicate
  % 25 nM CA200645 binding: 26.5 ± 2.0%
[5]
  β2AR % Total binding at 10 μM: 102.7 ± 5.1%
